Experimental data as given in US20260022143A1, “Cyclic Peptide Inhibitors of IL-23” (JANSSEN PHARMACEUTICA NV, priority 2022, published 2026).
Starred links: 1 amine or outer side, 2 acyl side, 3 side chain; linkers in the order of their positions; H or OH if unused. Positions of bridges follow the written chain, without caps; N, C: chain ends. Non-standard residues stand in square brackets, D forms with d. Residues, ends and D or L forms follow the SMILES beside them. Groups on a side chain read outwards from the residue. *: point of attachment. Trp(7-(3-AcNH-Ph)) = CC(=O)Nc1cccc(-c2cccc3c(C[C@H](N)C(=O)O)c[nH]c23)c1; X62 = C[N+]1(CCCCc2cn(-c3ccc(C[C@H](N[*:1])C(=O)[*:2])cc3)nn2)CCOCC1; Me3N+(CH2)2O(CH2)2O(CH2)2CO = C[N+](C)(C)CCOCCOCCC(=O)*; Trp(7-Me) = Cc1cccc2c(C[C@H](N)C(=O)O)c[nH]c12; d(hLys(Me3)) = C[N+](C)(C)CCCCC[C@@H](N)C(=O)O; X1 = CN(CC[C@H](N[*:1])C(=O)[*:2])[*:3]; γGlu = O=C(O)[C@H](CCC(=O)[*:2])N[*:1]; 2Nal = N[C@@H](Cc1ccc2ccccc2c1)C(=O)O; AEF = NCCOc1ccc(C[C@H](N)C(=O)O)cc1; X26 = C[N+](C)(C)CCCCc1cn(CC*)nn1; 3Pal = N[C@@H](Cc1cccnc1)C(=O)O; Lys(Me) = CNCCCC[C@H](N)C(=O)O; X7 = COCCOCCOCCOCCOCCOCCC(=O)*; Pen = CC(C)(S)[C@H](N)C(=O)O; Lauroyl = CCCCCCCCCCCC(=O)*; Thp = NC1(C(=O)O)CCOCC1; X17 = C[N+]1(CC*)CCOCC1; X3 = C[N+](C)(C)CCCCC*; AEEA = NCCOCCOCC(=O)O; Sar = CNCC(=O)O

Experiments:
[1] = Exposed Polar Surface Area (EPSA); type: physicochemical; details: SFC on Chirex 3014 column; sample 1 mM DMSO stock; read-out: EPSA
Outline: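 Polarity descriptor in Å² derived from retention time using 8 calibration standards re-run every 20 compounds. Duplicate injections of 1 mM DMSO stock; linear 5–60% modifier gradient (20 mM ammonium formate in MeOH) with CO2 at 4 mL/min, 35 °C, on a Chirex 3014 column.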

IL-23R = biological target: T1, IL-23R (Homo sapiens, UniProt Q5VWK5); experiment: IL23R Reporter Assay; type: cell-based; details: HEK293 cells containing IL-23R, IL-12RP1 and STAT-inducible firefly luciferase reporter; 10 ng/mL IL-23 (EC90); 5 h at 37° C.; read-out: IL23R Reporter Assay
T1 construct: host or cells: HEK293
T1 sequence (Q5VWK5 24-629): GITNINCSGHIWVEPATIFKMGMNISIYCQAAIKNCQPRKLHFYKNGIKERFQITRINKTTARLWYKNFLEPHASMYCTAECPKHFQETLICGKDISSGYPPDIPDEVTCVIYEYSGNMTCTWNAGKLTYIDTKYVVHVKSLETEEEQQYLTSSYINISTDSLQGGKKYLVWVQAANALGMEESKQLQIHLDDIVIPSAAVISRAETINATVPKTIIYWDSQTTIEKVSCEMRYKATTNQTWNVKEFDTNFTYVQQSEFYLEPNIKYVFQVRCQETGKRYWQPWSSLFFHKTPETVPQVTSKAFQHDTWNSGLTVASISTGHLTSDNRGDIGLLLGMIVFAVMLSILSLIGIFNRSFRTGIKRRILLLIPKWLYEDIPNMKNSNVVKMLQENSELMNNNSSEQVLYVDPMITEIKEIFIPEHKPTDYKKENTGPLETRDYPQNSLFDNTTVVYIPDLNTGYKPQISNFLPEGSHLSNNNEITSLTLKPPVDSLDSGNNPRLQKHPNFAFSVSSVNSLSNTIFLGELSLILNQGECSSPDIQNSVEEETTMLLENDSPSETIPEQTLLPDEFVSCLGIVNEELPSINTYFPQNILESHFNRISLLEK

Compound | EPSA [1] | IC50 (IL-23R)
CC(=O)N[C@@H]1C(=O)N[C@@H](CC(=O)N(C)C)C(=O)N[C@@H]([C@@H](C)O)C(=O)N[C@@H](Cc2c[nH]c3c(C)cccc23)C(=O)N[C@@H](CCN(C)C(=O)CCOCCOCC[N+](C)(C)C)C(=O)N[C@H](C(=O)N[C@@H](Cc2ccc(OCCN)cc2)C(=O)N[C@@H](Cc2ccc3ccccc3c2)C(=O)NC2(C(=O)N[C@@H](CCN(C)C(=O)CCOCCOCC[N+](C)(C)C)C(=O)N[C@@H](CC(N)=O)C(=O)N[C@@H](Cc3cccnc3)C(=O)N(C)CC(=O)N(C)C)CCOCC2)C(C)(C)SSC1(C)C [compound 175, MeCO-Pen(3)-N(N(Me)2)-T-7MeW-Dab(NMecPEG3a)-Pen(3)-AEF-2Nal-THP-Dab(NMecPEG3a)-N-3Pya-Sar-CON(Me)2] (Ac-[Pen]D(NMe2)T[Trp(7-Me)][X1](Me3N+(CH2)2O(CH2)2O(CH2)2CO)[Pen][AEF][2Nal][Thp][X1](Me3N+(CH2)2O(CH2)2O(CH2)2CO)N[3Pal][Sar]-NMe2; disulfide 1-6 (inferred)) | 140 A^2 | 6.3 nM
CCCCCCCCCCCC(=O)N[C@@H](CCC(=O)NCCOCCOCC(=O)NCCOCCOCC(=O)NCCCC[C@H](NC(=O)C1(NC(=O)[C@H](Cc2ccc3ccccc3c2)NC(=O)[C@H](Cc2ccc(OCCCCC[N+](C)(C)C)cc2)NC(=O)[C@H]2NC(=O)[C@H](CCCCN(C)C(C)=O)NC(=O)[C@H](Cc3c[nH]c4c(C)cccc34)NC(=O)[C@H]([C@@H](C)O)NC(=O)[C@H](CC(=O)N(C)C)NC(=O)[C@@H](NC(=O)CCOCCOCC[N+](C)(C)C)C(C)(C)SSC2(C)C)CCOCC1)C(=O)N[C@@H](CC(N)=O)C(=O)N[C@@H](Cc1cccnc1)C(=O)N(C)CC(=O)N(C)C)C(=O)O [compound 401, cPEG3aCO-Pen(3)-N(N(Me)2)-T-7MeW-K(NMeAc)-Pen(3)-TMAPF-2Nal-THP-K(PEG2PEG2gEC12)-N-3Pya-Sar-CON(Me)2] ({Me3N+(CH2)2O(CH2)2O(CH2)2CO}-[Pen]D(NMe2)T[Trp(7-Me)][Lys(Me)](Ac)[Pen]Y(X3)[2Nal][Thp]K([AEEA-AEEA-γGlu-Lauroyl])N[3Pal][Sar]-NMe2; disulfide 1-6) | 155 A^2 | 5.9 nM
CC(=O)N(C)CCCC[C@@H]1NC(=O)[C@H](Cc2ccccc2)NC(=O)[C@H]([C@@H](C)O)NC(=O)[C@H](CC(=O)N(C)C)NC(=O)[C@@H](NC(=O)CCOCCOCC[N+](C)(C)C)C(C)(C)SSC(C)(C)[C@@H](C(=O)N[C@@H](Cc2ccc(OCCCCC[N+](C)(C)C)cc2)C(=O)N[C@@H](Cc2ccc3ccccc3c2)C(=O)NC2(C(=O)N[C@@H](CCCCN(C)C(C)=O)C(=O)N[C@@H](CC(N)=O)C(=O)N[C@@H](Cc3cccnc3)C(=O)N(C)CC(=O)N(C)C)CCOCC2)NC1=O [compound 510, cPEG3aCO-Pen(3)-N(N(Me)2)-T-F-K(NMeAc)-Pen(3)-TMAPF-2Nal-THP-K(NMeAc)-N-3Pya-Sar-CONMe2] ({Me3N+(CH2)2O(CH2)2O(CH2)2CO}-[Pen]D(NMe2)TF[Lys(Me)](Ac)[Pen]Y(X3)[2Nal][Thp][Lys(Me)](Ac)N[3Pal][Sar]-NMe2; disulfide 1-6) | 201 A^2 | > 1220 nM
CC(=O)N(C)CCCC[C@@H]1NC(=O)[C@H](Cc2c[nH]c3c(C)cccc23)NC(=O)[C@H]([C@@H](C)O)NC(=O)[C@H](CC(=O)N(C)C)NC(=O)[C@@H](NC(=O)CCOCCOCC[N+](C)(C)C)C(C)(C)SSC(C)(C)[C@@H](C(=O)N[C@@H](Cc2ccc(OCCN)cc2)C(=O)N[C@@H](Cc2ccc3ccccc3c2)C(=O)NC2(C(=O)N[C@@H](CCCCN(C)C(C)=O)C(=O)N[C@@H](CC(N)=O)C(=O)N[C@@H](Cc3cccnc3)C(=O)N(C)CC(=O)N(C)C)CCOCC2)NC1=O [compound 320, cPEG3aCO-Pen(3)-N(N(Me)2)-T-7MeW-K(NMeAc)-Pen(3)-AEF-2Nal-THP-K(NMeAc)-N-3Pya-Sar-CON(Me)2] ({Me3N+(CH2)2O(CH2)2O(CH2)2CO}-[Pen]D(NMe2)T[Trp(7-Me)][Lys(Me)](Ac)[Pen][AEF][2Nal][Thp][Lys(Me)](Ac)N[3Pal][Sar]-NMe2; disulfide 1-6) | 162 A^2 | 0.95 nM
CC(=O)N(C)CCCC[C@@H]1NC(=O)[C@H](Cc2c[nH]c3c(C)cccc23)NC(=O)[C@H]([C@@H](C)O)NC(=O)[C@H](CC(=O)N(C)C)NC(=O)[C@@H](NC(=O)CCOCCOCC[N+](C)(C)C)C(C)(C)SSC(C)(C)[C@@H](C(=O)N[C@@H](Cc2ccc(OCC[N+]3(C)CCOCC3)cc2)C(=O)N[C@@H](Cc2ccc3ccccc3c2)C(=O)NC2(C(=O)N[C@@H](CCCCN(C)C(C)=O)C(=O)N[C@@H](CC(N)=O)C(=O)N[C@@H](Cc3cccnc3)C(=O)N(C)CC(=O)N(C)C)CCOCC2)NC1=O [compound 198, cPEG3aCO-Pen(3)-N(N(Me)2)-T-7MeW-K(NMeac)-Pen(3)-MMoEF-2Nal-THP-K(NMeAc)-N-3Pya-Sar-CON(Me)2] ({Me3N+(CH2)2O(CH2)2O(CH2)2CO}-[Pen]D(NMe2)T[Trp(7-Me)][Lys(Me)](Ac)[Pen]Y(X17)[2Nal][Thp][Lys(Me)](Ac)N[3Pal][Sar]-NMe2; disulfide 1-6) | 144 A^2 | 3.1 nM
COCCOCCOCCOCCOCCOCCC(=O)N[C@H](CCCNC(=N)N)C(=O)N[C@@H]1C(=O)N[C@@H](CC(N)=O)C(=O)N[C@@H]([C@@H](C)O)C(=O)N[C@@H](Cc2c[nH]c3c(-c4cccc(NC(C)=O)c4)cccc23)C(=O)N[C@@H](CCCCNC(C)=O)C(=O)N[C@H](C(=O)N[C@@H](Cc2ccc(OCCN)cc2)C(=O)N[C@@H](Cc2ccc3ccccc3c2)C(=O)NC2(C(=O)N[C@@H](CCC(=O)O)C(=O)N[C@@H](CC(N)=O)C(=O)N[C@@H](Cc3cccnc3)C(=O)N(C)CC(N)=O)CCOCC2)C(C)(C)SSC1(C)C [compound 422] (X7-[dR][Pen]NT[Trp(7-(3-AcNH-Ph))]K(Ac)[Pen][AEF][2Nal][Thp]EN[3Pal][Sar]-NH2; disulfide 2-7 (inferred)) | 192 A^2 | 1.8 nM
CC(=O)N[C@H](CCCCC[N+](C)(C)C)C(=O)N[C@@H]1C(=O)N[C@@H](CC(=O)N(C)C)C(=O)N[C@@H]([C@@H](C)O)C(=O)N[C@@H](Cc2c[nH]c3c(C)cccc23)C(=O)N[C@@H](CCCCN(C)C(C)=O)C(=O)N[C@H](C(=O)N[C@@H](Cc2ccc(OCCN)cc2)C(=O)N[C@@H](Cc2ccc3ccccc3c2)C(=O)NC2(C(=O)N[C@@H](CCC(=O)O)C(=O)N[C@@H](CC(N)=O)C(=O)N[C@@H](Cc3cccnc3)C(=O)N(C)CC(=O)N(C)C)CCOCC2)C(C)(C)SSC1(C)C [compound 163, MeCO-hk(Me)3-Pen(3)-N(N(Me)2)-T-7MeW-K(NMeAc)-Pen(3)-AEF-2Nal-THP-E-N-3Pya-Sar-CON(Me)2] (Ac-[d(hLys(Me3))][Pen]D(NMe2)T[Trp(7-Me)][Lys(Me)](Ac)[Pen][AEF][2Nal][Thp]EN[3Pal][Sar]-NMe2; disulfide 2-7 (inferred)) | 168 A^2 | 3.2 nM
CC(=O)NCCCC[C@@H]1NC(=O)[C@H](Cc2c[nH]c3c(C)cccc23)NC(=O)[C@H]([C@@H](C)O)NC(=O)[C@H](CC(N)=O)NC(=O)[C@@H](NC(C)=O)C(C)(C)SSC(C)(C)[C@@H](C(=O)N[C@@H](Cc2ccc(OCCn3cc(CCCC[N+](C)(C)C)nn3)cc2)C(=O)N[C@@H](Cc2ccc3ccccc3c2)C(=O)NC2(C(=O)N[C@@H](CCCCNC(C)=O)C(=O)N[C@@H](CC(N)=O)C(=O)N[C@@H](Cc3cccnc3)C(=O)N(C)CC(N)=O)CCOCC2)NC1=O [compound 258] (Ac-[Pen]NT[Trp(7-Me)]K(Ac)[Pen]Y(X26)[2Nal][Thp]K(Ac)N[3Pal][Sar]-NH2; disulfide 1-6 (inferred)) | 151 A^2 | 6.9 nM
CC(=O)N(C)CCCC[C@@H]1NC(=O)[C@H](Cc2c[nH]c3c(C)cccc23)NC(=O)[C@H]([C@@H](C)O)NC(=O)[C@H](CC(=O)N(C)C)NC(=O)[C@@H](NC(=O)CCOCCOCC[N+](C)(C)C)C(C)(C)SSC(C)(C)[C@@H](C(=O)N[C@@H](Cc2ccc(-n3cc(CCCC[N+]4(C)CCOCC4)nn3)cc2)C(=O)N[C@@H](Cc2ccc3ccccc3c2)C(=O)NC2(C(=O)N[C@@H](CCCCN(C)C(C)=O)C(=O)N[C@@H](CC(N)=O)C(=O)N[C@@H](Cc3cccnc3)C(=O)N(C)CC(=O)N(C)C)CCOCC2)NC1=O [compound 336, cPEG3aCO-Pen(3)-N(N(Me)2)-T-7MeW-K(NMeAc)-Pen(3)-F(4TzlMMo4)-2Nal-THP-K(NMeAc)-N-3Pya-Sar-CON(Me)2] ({Me3N+(CH2)2O(CH2)2O(CH2)2CO}-[Pen]D(NMe2)T[Trp(7-Me)][Lys(Me)](Ac)[Pen][X62][2Nal][Thp][Lys(Me)](Ac)N[3Pal][Sar]-NMe2; disulfide 1-6) | 156 A^2 | 1.5 nM
